Laboratory results taken from the supplement of paper PMC10307832.

Columns and labels:
Assay in all cases: relative viability (nuclei count vs DMSO), 5 days (fraction); higher = more cells survive
IPA-3 = compound: C1=CC=C2C(=C1)C=CC(=C2SSC3=C(C=CC4=CC=CC=C43)O)O [IPA-3]
In short: (§1)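 Viability was defined as treated-well nuclei divided by vehicle-well nuclei, with the median taken over replicate plates. Cells from lung cancer lines sat overnight at 37 °C in 1536-well plates, received five √10-spaced library-drug doses by pinning on vehicle-anchored plates, and grew 5 days without medium change before one-step fixation, permeabilisation and Hoechst staining, 4× imaging and MetaXpress nuclear counts. Only plates with control CV under 25% and at least one doubling were kept.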

Doramapimod = compound: Cc1ccc(-n2nc(C(C)(C)C)cc2NC(=O)Nc2ccc(OCCN3CCOCC3)c3ccccc23)cc1 [Doramapimod]
In short: as §1

RAF265 = compound: Cn1c(Nc2ccc(C(F)(F)F)cc2)nc2cc(Oc3ccnc(-c4ncc(C(F)(F)F)[nH]4)c3)ccc21 [RAF265]
In short: as §1

Doramapimod + Crizotinib = compound: Cc1ccc(-n2nc(C(C)(C)C)cc2NC(=O)Nc2ccc(OCCN3CCOCC3)c3ccccc23)cc1 [Doramapimod] + C[C@@H](Oc1cc(-c2cnn(C3CCNCC3)c2)cnc1N)c1c(Cl)ccc(F)c1Cl [Crizotinib] (partner 1 µM)
In short: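 Relative viability is defined as nuclei in treated wells over nuclei in vehicle wells. Duplicate plates were run and medians reported. Lung cancer cell lines in 1536-well plates were dosed by pin tool one day after seeding, with one drug or with a fixed anchor-drug dose plus five library-drug doses (not always all listed) in √10 steps, and nuclei were counted after 5 days.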

| Cell Line | relative viability (IPA-3; 0.2 µM) | relative viability (IPA-3; 0.6325 µM) | relative viability (IPA-3; 2 µM) | relative viability (IPA-3; 6.325 µM) | relative viability (IPA-3; 20 µM) | relative viability (Doramapimod; 0.02 µM) | relative viability (Doramapimod; 0.06325 µM) | relative viability (Doramapimod; 0.2 µM) | relative viability (Doramapimod; 0.6325 µM) | relative viability (Doramapimod; 2 µM) | relative viability (RAF265; 0.01 µM) | relative viability (RAF265; 0.03162 µM) | relative viability (RAF265; 0.1 µM) | relative viability (RAF265; 0.3162 µM) | relative viability (RAF265; 1 µM) | relative viability (Doramapimod + Crizotinib; first compound 0.02 µM) | relative viability (Doramapimod + Crizotinib; first compound 0.06325 µM) | relative viability (Doramapimod + Crizotinib; first compound 0.2 µM) | relative viability (Doramapimod + Crizotinib; first compound 0.6325 µM) | relative viability (Doramapimod + Crizotinib; first compound 2 µM) |
| --- | --- | --- | --- | --- | --- | --- | --- | --- | --- | --- | --- | --- | --- | --- | --- | --- | --- | --- | --- | --- |
| LOU-NH91 | 0.953 | 0.94 | 1.01 | 1.01 | 1.19 | 1.09 | 0.996 | 1.05 | 1.08 | 0.691 | 1.05 | 0.976 | 0.905 | 0.733 | 0.753 | 0.729 | 0.724 | 0.749 | 0.796 | 0.61 |
| LU99A | 1.02 | 0.89 | 0.932 | 0.919 | 0.98 | 0.944 | 0.906 | 1.03 | 1 | 0.949 | 0.971 | 0.987 | 0.705 | 0.492 | 0.373 | 0.562 | 0.541 | 0.533 | 0.585 | 0.442 |
| LXF-289 | 1.08 | 0.999 | 1.04 | 1.06 | 1.13 | 0.999 | 0.986 | 1.01 | 0.982 | 0.943 | 1.02 | 1.1 | 0.976 | 0.807 | 0.768 | 0.839 | 0.91 | 0.799 | 0.793 | 0.757 |
| NCI-H23 | 1.08 | 0.944 | 0.895 | 0.917 | 0.923 | 0.966 | 1.04 | 1.06 | 0.864 | 0.946 | 0.966 | 0.847 | 0.906 | 0.416 | 0.41 | 0.685 | 0.435 | 0.488 | 0.539 | 0.595 |
| NCI-H322M | 1.01 | 0.902 | 1.02 | 1.03 | 1 | 1.05 | 0.993 | 0.998 | 1.3 | 0.937 | 1.04 | 1 | 0.597 | 0.38 | 0.282 | 0.899 | 0.949 | 1.02 | 1.02 | 0.924 |
| NCI-H358 | 1.06 | 0.892 | 0.917 | 0.965 | 0.949 | 0.873 | 0.881 | 0.973 | 0.923 | 0.88 | 1.03 | 0.903 | 0.686 | 0.382 | 0.262 | 0.531 | 0.614 | 0.552 | 0.702 | 0.509 |
| NCI-H441 | 1.37 | 0.951 | 0.896 | 1.04 | 0.915 | 0.999 | 0.845 | 1.08 | 1.06 | 0.859 | 1.01 | 0.928 | 1.08 | 0.78 | 0.753 | 0.96 | 0.512 | 0.67 | 0.741 | 0.549 |
| NCI-H460 | 1.2 | 0.967 | 0.921 | 0.945 | 0.993 | 0.994 | 0.999 | 1.04 | 1.05 | 0.972 | 1.02 | 0.968 | 1.09 | 0.971 | 0.965 | 0.807 | 0.806 | 0.986 | 0.846 | 0.794 |
| NCI-H520 | 1.07 | 0.888 | 0.916 | 1.03 | 0.929 | 0.943 | 0.933 | 0.941 | 0.88 | 0.868 | 1.11 | 0.869 | 1.03 | 1.02 | 0.614 | 0.614 | 0.767 | 0.709 | 0.803 | 0.52 |
| NCI-H596 | 0.934 | 0.989 | 0.977 | 1.13 | 1.2 | 1.02 | 1.12 | 0.957 | 0.92 | 0.984 | 1.28 | 0.987 | 1.07 | 1.03 | 0.829 | 0.95 | 0.95 | 1.02 | 1.01 | 1 |
| NCI-H647 | 1.27 | 0.906 | 0.88 | 0.758 | 0.568 | 1.05 | 1.03 | 1.07 | 0.995 | 0.913 | 0.931 | 0.974 | 0.886 | 0.645 | 0.505 | 1.1 | 1.03 | 0.992 | 0.96 | 0.833 |
| NCI-H650 | 1.2 | 0.977 | 0.861 | 1.03 | 1.12 | 0.965 | 1.02 | 1.11 | 0.901 | 0.913 | 1.07 | 0.845 | 0.969 | 0.615 | 0.51 | 0.77 | 0.661 | 0.826 | 0.783 | 0.668 |
| NCI-H661 | 1.09 | 0.951 | 0.984 | 1 | 1.01 | 0.978 | 1.02 | 0.995 | 1.06 | 0.915 | 1.01 | 0.962 | 0.774 | 0.643 | 0.57 | 1.15 | 1.07 | 1 | 0.964 | 1.03 |
